According to patent US20120121679A1, “VIRICIDAL AND MICROBICIDAL COMPOSITIONS AND USES THEREOF” (University of Georgia Research Foundation, Inc., priority 2009, published 2012):
Read-outs that look alike come from different tables or passages of the source.

Columns and labels:
Murine norovirus (MNV-1) = assay: Inactivation of MNV-1 by levulinic acid plus SDS in solution, plaque assay; conditions: 21° C., 1 min
Feline Calicivirus (FCV) = assay: Inactivation of FCV by levulinic acid plus SDS in solution, plaque assay; conditions: 21° C., 1 min
S. enteritidis = assay: Reduction of S. enteritidis in water treated with organic acids and SDS; assay type: cell-based, Salmonella enteritidis
yeast species = assay: Effect of levulinic acids plus SDS at 21° C. on various yeast species
[1] = tested on: spores of Bacillus anthracis Sterne (34F2); assay type: cell-based
[2] = Candida magnoliae, inoculum […] 10^8 CFU/ml
[3] = Debaryomyces hansenii, inoculum […] 10^7 CFU/ml
[4] = Geotrichum candidum, inoculum […] 10^7 CFU/ml
[5] = Saccharomyces cerevisiae, inoculum […] 10^7 CFU/ml
[6] = Zygosaccharomyces bailii, inoculum […] 10^7 CFU/ml

In the case of CCCCCCCCCCCCOS(=O)(=O)[O-].[Na+] [0.5% SDS, sodium dodecyl sulfate], the “Log Reduction PFU/ml (standard deviation), MNV-1” value (Murine norovirus (MNV-1); sulfate) is reported as 0.13 (±0.20) log PFU/ml and the “Log Reduction PFU/ml (standard deviation), FCV” value (Feline Calicivirus (FCV); sulfate) is reported as −0.09 (±0.27) log PFU/ml.
For CC(=O)O [0.5% acetic acid, acetic acid], the “Salmonella reduction in water” value (S. enteritidis) was 0.7 log CFU/ml.
With CC(=O)CCC(=O)O [0.5% levulinic acid, levulinic acid] the “Log Reduction PFU/ml (standard deviation), MNV-1” value (Murine norovirus (MNV-1)) was 0.09 (±0.38) log PFU/ml and the “Log Reduction PFU/ml (standard deviation), FCV” value (Feline Calicivirus (FCV)) was 0.09 (±0.16) log PFU/ml.
For CCCCCCCCCCCCOS(=O)(=O)[O-].[Na+] [1% SDS, sodium dodecyl sulfate], the “Log Reduction PFU/ml (standard deviation), MNV-1” value (Murine norovirus (MNV-1); sulfate) was 0.03 (±0.12) log PFU/ml and the “Log Reduction PFU/ml (standard deviation), FCV” value (Feline Calicivirus (FCV); sulfate) was −0.05 (±0.18) log PFU/ml.
In the case of CCCCCCCCCCCCOS(=O)(=O)[O-].[Na+] [1.0% SDS], the “Yeast counts at 2 min” value (yeast species; [2]) is reported as 3.3 log CFU/ml, the “Yeast counts at 5 min” value (yeast species; [2]) is reported as 3.2 log CFU/ml and the “Yeast counts at 20 min” value (yeast species; [2]) is reported as 2.7 log CFU/ml. The “Yeast counts at 30 min” value (yeast species; [2]) was 3.0 log CFU/ml, the “Yeast counts at 60 min” value (yeast species; [2]) was 3.1 log CFU/ml and the “Yeast counts at 2 min” value (yeast species; [3]) was 4.1 log CFU/ml. The “Yeast counts at 5 min” value (yeast species; [3]) was 4.5 log CFU/ml, the “Yeast counts at 20 min” value (yeast species; [3]) was 4.5 log CFU/ml and the “Yeast counts at 30 min” value (yeast species; [3]) was 4.5 log CFU/ml. The “Yeast counts at 60 min” value (yeast species; [3]) was 4.4 log CFU/ml, the “Yeast counts at 2 min” value (yeast species; [4]) was 3.3 log CFU/ml and the “Yeast counts at 5 min” value (yeast species; [4]) was 3.5 log CFU/ml. The “Yeast counts at 20 min” value (yeast species; [4]) was 3.5 log CFU/ml, the “Yeast counts at 30 min” value (yeast species; [4]) was 3.4 log CFU/ml and the “Yeast counts at 60 min” value (yeast species; [4]) was 3.3 log CFU/ml. For the same molecule, the “Yeast counts at 2 min” value (yeast species; [5]) was 2.6 log CFU/ml, the “Yeast counts at 5 min” value (yeast species; [5]) was 2.3 log CFU/ml and the “Yeast counts at 20 min” value (yeast species; [5]) was 2.7 log CFU/ml. The “Yeast counts at 30 min” value (yeast species; [5]) was 2.3 log CFU/ml, the “Yeast counts at 60 min” value (yeast species; [5]) was 2.4 log CFU/ml and the “Yeast counts at 2 min” value (yeast species; [6]) was 4.6 log CFU/ml. For the same molecule, the “Yeast counts at 5 min” value (yeast species; [6]) was 4.6 log CFU/ml, the “Yeast counts at 20 min” value (yeast species; [6]) was 4.5 log CFU/ml and the “Yeast counts at 30 min” value (yeast species; [6]) was 4.5 log CFU/ml. For the same molecule, the “Yeast counts at 60 min” value (yeast species; [6]) was 4.4 log CFU/ml.
For CC(=O)CCC(=O)O [1.0% levulinic acid, levulinic acid], the “Log Reduction PFU/ml (standard deviation), MNV-1” value (Murine norovirus (MNV-1); listed as 1% Levulinic acid) was −0.04 (±0.23) log PFU/ml, the “Salmonella reduction in water” value (S. enteritidis; within 30 minutes, listed as 1% by weight levulinic acid) was no more than 1 log CFU/ml and the “Log Reduction PFU/ml (standard deviation), FCV” value (Feline Calicivirus (FCV); listed as 1% Levulinic acid) was 0.32 (±0.19) log PFU/ml.
CCCCCCCCCCCCOS(=O)(=O)[O-].[Na+] [2% SDS, sodium dodecyl sulfate] was tested, and the “Log Reduction PFU/ml (standard deviation), MNV-1” value (Murine norovirus (MNV-1); sulfate) was −0.23 (±0.59) log PFU/ml, the “Log Reduction PFU/ml (standard deviation), FCV” value (Feline Calicivirus (FCV); sulfate) was −0.05 (±0.22) log PFU/ml and the “Recovery levels over time” value ([1]; Experiment A3) was “did not decrease”. The “CFU/ml % recovery (as compared to control flask F)” value (from here on “CFU/ml % recovery”) ([1]; Experiment A3, 0 min) was 119%, the “CFU/ml % recovery” value ([1]; Experiment A3, 10 min) was 65% and the “CFU/ml % recovery” value ([1]; Experiment A3, 45 min) was 94%. For the same molecule, the “CFU/ml % recovery” value ([1]; Experiment A3, 90 min) was 144%, the “CFU/ml % recovery” value ([1]; Experiment A3, 180 min) was 95% and the “CFU/ml % recovery” value ([1]; Experiment A4 absent heat, RT, 0 min) was 85%. For the same molecule, the “CFU/ml % recovery” value ([1]; Experiment A4 absent heat, RT, 1 h) was 90%, the “CFU/ml % recovery” value ([1]; Experiment A4 absent heat, RT, 2 h) was 87% and the “CFU/ml % recovery” value ([1]; Experiment A4 absent heat, RT, 3 h) was 98%. The “CFU/ml % recovery” value ([1]; Experiment A4 absent heat, RT, 4 h) was 79%, the “CFU/ml % recovery” value ([1]; Experiment A4 with heat, 65° C., 0 min) was 48% and the “CFU/ml % recovery” value ([1]; Experiment A4 with heat, 65° C., 1 h) was 53%. The “CFU/ml % recovery” value ([1]; Experiment A4 with heat, 65° C., 2 h) was 74%, the “CFU/ml % recovery” value ([1]; Experiment A4 with heat, 65° C., 3 h) was 68% and the “CFU/ml % recovery” value ([1]; Experiment A4 with heat, 65° C., 4 h) was 114%. The “CFU/ml % recovery” value ([1]; Experiment A5 absent heat, RT, 0 min) was 122%, the “CFU/ml % recovery” value ([1]; Experiment A5 absent heat, RT, 1 h) was 117% and the “CFU/ml % recovery” value ([1]; Experiment A5 absent heat, RT, 2 h) was 103%. The “CFU/ml % recovery” value ([1]; Experiment A5 absent heat, RT, 3 h) was 113%, the “CFU/ml % recovery” value ([1]; Experiment A5 absent heat, RT, 4 h) was 103% and the “CFU/ml % recovery” value ([1]; Experiment A5 with heat, 65° C., 0 min) was 71%. For the same molecule, the “CFU/ml % recovery” value ([1]; Experiment A5 with heat, 65° C., 1 h) was 69%, the “CFU/ml % recovery” value ([1]; Experiment A5 with heat, 65° C., 2 h) was 53% and the “CFU/ml % recovery” value ([1]; Experiment A5 with heat, 65° C., 3 h) was 71%. For the same molecule, the “CFU/ml % recovery” value ([1]; Experiment A5 with heat, 65° C., 4 h) was 54% and the “effectiveness compared with water control F” value ([1]; Experiments A4, A5) was “not more effective than the water control F”.
CC(=O)CCC(=O)O [2.0% levulinic acid, levulinic acid] was tested, and the “Log Reduction PFU/ml (standard deviation), MNV-1” value (Murine norovirus (MNV-1); listed as 2% Levulinic acid) was −0.06 (±0.17) log PFU/ml, the “Yeast counts at 2 min” value (yeast species; [3]) was 4.9 log CFU/ml and the “Yeast counts at 5 min” value (yeast species; [3]) was 4.6 log CFU/ml. For the same molecule, the “Yeast counts at 20 min” value (yeast species; [3]) was 4.7 log CFU/ml, the “Yeast counts at 30 min” value (yeast species; [3]) was 3.0 log CFU/ml and the “Yeast counts at 60 min” value (yeast species; [3]) was 1.3 log CFU/ml. The “Yeast counts at 2 min” value (yeast species; [4]) was 4.4 log CFU/ml, the “Yeast counts at 5 min” value (yeast species; [4]) was 4.3 log CFU/ml and the “Yeast counts at 20 min” value (yeast species; [4]) was 3.8 log CFU/ml. For the same molecule, the “Yeast counts at 30 min” value (yeast species; [4]) was 3.4 log CFU/ml, the “Yeast counts at 60 min” value (yeast species; [4]) was 2.0 log CFU/ml and the “Yeast counts at 2 min” value (yeast species; [5]) was 5.5 log CFU/ml. For the same molecule, the “Yeast counts at 5 min” value (yeast species; [5]) was 5.4 log CFU/ml, the “Yeast counts at 20 min” value (yeast species; [5]) was 5.3 log CFU/ml and the “Yeast counts at 30 min” value (yeast species; [5]) was 5.5 log CFU/ml. For the same molecule, the “Yeast counts at 60 min” value (yeast species; [5]) was 5.0 log CFU/ml, the “Yeast counts at 2 min” value (yeast species; [6]) was 5.5 log CFU/ml and the “Yeast counts at 5 min” value (yeast species; [6]) was 5.4 log CFU/ml. The “Yeast counts at 20 min” value (yeast species; [6]) was 5.4 log CFU/ml, the “Yeast counts at 30 min” value (yeast species; [6]) was 5.4 log CFU/ml and the “Yeast counts at 60 min” value (yeast species; [6]) was 5.3 log CFU/ml. For the same molecule, the “Log Reduction PFU/ml (standard deviation), FCV” value (Feline Calicivirus (FCV); listed as 2% Levulinic acid) was 0.51 (±0.34) log PFU/ml.
With CC(=O)CCC(=O)O [2.0% levulinic acids] the “Yeast counts at 2 min” value (yeast species; [2]) was 5.9 log CFU/ml, the “Yeast counts at 5 min” value (yeast species; [2]) was 5.9 log CFU/ml and the “Yeast counts at 20 min” value (yeast species; [2]) was 6.0 log CFU/ml. For the same molecule, the “Yeast counts at 30 min” value (yeast species; [2]) was 5.9 log CFU/ml and the “Yeast counts at 60 min” value (yeast species; [2]) was 5.8 log CFU/ml.
